Tests used:
Conditions in all cases: 48 h
NOMO1 [1] = experiment: cell viability relative to DMSO control; higher = less cytotoxic
Outline: (§1)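 Viability is expressed as a percentage of DMSO wells within each plate, and cell-free wells serve as background. Seeding densities in the 1536-well plates (5 μl) were 500 cells/well for NOMO1 or SEM leukemia cells and 1000 cells/well for P12-Ichikawa. Each line was adapted for at least four passages in each medium. Library compounds in DMSO were pin-dosed at 47 μM to 0.79 nM (11 points, threefold), and CellTiter-Glo One luminescence was read after 48 h at 37°C.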

P12-Ichikawa [2] = experiment: as above
Outline: as §1

SEM cells [3] = experiment: as above
Outline: as §1

NOMO1 [4] = experiment: AUC of viability dose-response curve (% viability x log10 dose units); higher = less sensitive
Outline: (§2)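 Area under the curve was integrated by trapezoidal rule from a log-logistic fit of normalised viability, with curves exceeding full viability scaled and quality-control failures removed. The fit had four parameters over log10 doses. Viability came from CellTiter-Glo One luminescence, normalised per plate to DMSO and cell-free wells, after leukemia cells adapted to each medium (500 or 1000 cells/well, 1536-well plates) were exposed to library compounds in DMSO for 48 h at 37°C. The 11 threefold doses ran from 47 μM to 0.79 nM.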

P12-Ichikawa [5] = experiment: as above
Outline: as §2

SEM cells [6] = experiment: as above
Outline: as §2

CCN(CC)CCCC(C)Nc1ccnc2cc(Cl)ccc12 (stereo not drawn)
cell viability [%]
Conditions	NOMO1 [1]	P12-Ichikawa [2]	SEM cells [3]
HPLM + 10% dialyzed FBS, 0.000781 µM	112	105	108
HPLM + 10% dialyzed FBS, 0.00234 µM	100	110	113
HPLM + 10% dialyzed FBS, 0.00702 µM	124	112	116
HPLM + 10% dialyzed FBS, 0.0211 µM	115	117	121
HPLM + 10% dialyzed FBS, 0.0632 µM	120	119	122
HPLM + 10% dialyzed FBS, 0.19 µM	103	121	128
HPLM + 10% dialyzed FBS, 0.569 µM	104	113	116
HPLM + 10% dialyzed FBS, 1.71 µM	69.7	109	117
HPLM + 10% dialyzed FBS, 5.12 µM	74	101	134
HPLM + 10% dialyzed FBS, 15.4 µM	31.6	27.5	127
HPLM + 10% dialyzed FBS, 46.1 µM	31.5	21	102
RPMI 5 mM glucose + 10% FBS, 0.000781 µM	103	105	102
RPMI 5 mM glucose + 10% FBS, 0.00234 µM	112	114	117
RPMI 5 mM glucose + 10% FBS, 0.00702 µM	99.2	108	119
RPMI 5 mM glucose + 10% FBS, 0.0211 µM	102	102	104
RPMI 5 mM glucose + 10% FBS, 0.0632 µM	117	111	109
RPMI 5 mM glucose + 10% FBS, 0.19 µM	108	112	111
RPMI 5 mM glucose + 10% FBS, 0.569 µM	110	107	100
RPMI 5 mM glucose + 10% FBS, 1.71 µM	92.8	103	129
RPMI 5 mM glucose + 10% FBS, 5.12 µM	99.7	101	118
RPMI 5 mM glucose + 10% FBS, 15.4 µM	21.1	21.4	106
RPMI 5 mM glucose + 10% FBS, 46.1 µM	18	20.7	94.4
RPMI 5 mM glucose + 10% dialyzed FBS, 0.000781 µM	124	107	105
RPMI 5 mM glucose + 10% dialyzed FBS, 0.00234 µM	120	109	98.6
RPMI 5 mM glucose + 10% dialyzed FBS, 0.00702 µM	118	106	103
RPMI 5 mM glucose + 10% dialyzed FBS, 0.0211 µM	134	109	103
RPMI 5 mM glucose + 10% dialyzed FBS, 0.0632 µM	120	106	99.9
RPMI 5 mM glucose + 10% dialyzed FBS, 0.19 µM	121	101	115
RPMI 5 mM glucose + 10% dialyzed FBS, 0.569 µM	120	117	109
RPMI 5 mM glucose + 10% dialyzed FBS, 1.71 µM	111	110	129
RPMI 5 mM glucose + 10% dialyzed FBS, 5.12 µM	107	98.2	104
RPMI 5 mM glucose + 10% dialyzed FBS, 15.4 µM	26.9	27.7	87
RPMI 5 mM glucose + 10% dialyzed FBS, 46.1 µM	26.5	22	92.4

AUC of viability dose-response curve
Conditions	NOMO1 [4]	P12-Ichikawa [5]	SEM cells [6]
HPLM + 10% dialyzed FBS	382	416	477
RPMI 5 mM glucose + 10% FBS	416	416	468
RPMI 5 mM glucose + 10% dialyzed FBS	416	418	468

CN(C[C@@H]1COCCO1)[S+]([O-])(=O)NC2=CC3=C(C=C2)\C=C/C4=C(C=C(C=N4)C5=C[N](C)N=C5)C3=O
cell viability [%]
Conditions	NOMO1 [1]	P12-Ichikawa [2]	SEM cells [3]
HPLM + 10% dialyzed FBS, 0.000781 µM	89.6	93.4	85.5
HPLM + 10% dialyzed FBS, 0.00234 µM	107	99.6	93.9
HPLM + 10% dialyzed FBS, 0.00702 µM	92.5	94.1	92.6
HPLM + 10% dialyzed FBS, 0.0211 µM	92.1	101	86.4
HPLM + 10% dialyzed FBS, 0.0632 µM	84.5	93.7	79.5
HPLM + 10% dialyzed FBS, 0.19 µM	72.2	90.1	80.8
HPLM + 10% dialyzed FBS, 0.569 µM	62.2	71.8	69.9
HPLM + 10% dialyzed FBS, 1.71 µM	47.1	67.4	48.8
HPLM + 10% dialyzed FBS, 5.12 µM	41.1	54.7	29.8
HPLM + 10% dialyzed FBS, 15.4 µM	26.2	49.8	22.4
HPLM + 10% dialyzed FBS, 46.1 µM	26.6	52.4	24.8
RPMI 5 mM glucose + 10% FBS, 0.000781 µM	92.2	95.6	113
RPMI 5 mM glucose + 10% FBS, 0.00234 µM	101	92.7	86.6
RPMI 5 mM glucose + 10% FBS, 0.00702 µM	90.6	103	110
RPMI 5 mM glucose + 10% FBS, 0.0211 µM	114	95.2	109
RPMI 5 mM glucose + 10% FBS, 0.0632 µM	93.8	102	85.5
RPMI 5 mM glucose + 10% FBS, 0.19 µM	91.2	96.1	76.3
RPMI 5 mM glucose + 10% FBS, 0.569 µM	86.9	76.6	53.1
RPMI 5 mM glucose + 10% FBS, 1.71 µM	57.1	53.5	35.2
RPMI 5 mM glucose + 10% FBS, 5.12 µM	49.5	48.8	22.2
RPMI 5 mM glucose + 10% FBS, 15.4 µM	35.2	42.2	16
RPMI 5 mM glucose + 10% FBS, 46.1 µM	33.3	50	16.4
RPMI 5 mM glucose + 10% dialyzed FBS, 0.000781 µM	84.5	94	78.9
RPMI 5 mM glucose + 10% dialyzed FBS, 0.00234 µM	104	97.1	96.4
RPMI 5 mM glucose + 10% dialyzed FBS, 0.00702 µM	98.4	88.7	91.2
RPMI 5 mM glucose + 10% dialyzed FBS, 0.0211 µM	87.4	91.2	86.8
RPMI 5 mM glucose + 10% dialyzed FBS, 0.0632 µM	99.2	105	85.2
RPMI 5 mM glucose + 10% dialyzed FBS, 0.19 µM	91.9	88.9	66.3
RPMI 5 mM glucose + 10% dialyzed FBS, 0.569 µM	73.7	75.3	60.8
RPMI 5 mM glucose + 10% dialyzed FBS, 1.71 µM	52.1	53.6	38.5
RPMI 5 mM glucose + 10% dialyzed FBS, 5.12 µM	48.9	43.3	24.5
RPMI 5 mM glucose + 10% dialyzed FBS, 15.4 µM	39.8	37.6	17.3
RPMI 5 mM glucose + 10% dialyzed FBS, 46.1 µM	31.6	41.5	18.3

AUC of viability dose-response curve
Conditions	NOMO1 [4]	P12-Ichikawa [5]	SEM cells [6]
HPLM + 10% dialyzed FBS	324	379	314
RPMI 5 mM glucose + 10% FBS	371	374	301
RPMI 5 mM glucose + 10% dialyzed FBS	355	357	292

OC1CCC(CC1)N2\C=N/C3=C(C2=N)C(=C([N]3CC4=CC=CC=C4)C5=CC=CC=C5)C6=CC=CC=C6 (stereo not drawn)
cell viability [%]
Conditions	NOMO1 [1]	SEM cells [3]
HPLM + 10% dialyzed FBS, 0.000781 µM	115	117
HPLM + 10% dialyzed FBS, 0.00234 µM	133	123
HPLM + 10% dialyzed FBS, 0.00702 µM	121	134
HPLM + 10% dialyzed FBS, 0.0211 µM	144	116
HPLM + 10% dialyzed FBS, 0.0632 µM	142	113
HPLM + 10% dialyzed FBS, 0.19 µM	130	98.9
HPLM + 10% dialyzed FBS, 0.569 µM	130	46.8
HPLM + 10% dialyzed FBS, 1.71 µM	93.8	47.2
HPLM + 10% dialyzed FBS, 5.12 µM	81	38.6
HPLM + 10% dialyzed FBS, 15.4 µM	74.9	39
HPLM + 10% dialyzed FBS, 46.1 µM	9.01	41
RPMI 5 mM glucose + 10% FBS, 0.000781 µM	–	110
RPMI 5 mM glucose + 10% FBS, 0.00234 µM	–	117
RPMI 5 mM glucose + 10% FBS, 0.00702 µM	–	131
RPMI 5 mM glucose + 10% FBS, 0.0211 µM	–	108
RPMI 5 mM glucose + 10% FBS, 0.0632 µM	–	102
RPMI 5 mM glucose + 10% FBS, 0.19 µM	–	97.6
RPMI 5 mM glucose + 10% FBS, 0.569 µM	–	47.4
RPMI 5 mM glucose + 10% FBS, 1.71 µM	–	39.4
RPMI 5 mM glucose + 10% FBS, 5.12 µM	–	37
RPMI 5 mM glucose + 10% FBS, 15.4 µM	–	37.8
RPMI 5 mM glucose + 10% FBS, 46.1 µM	–	24

AUC of viability dose-response curve
Conditions	NOMO1 [4]	P12-Ichikawa [5]	SEM cells [6]
HPLM + 10% dialyzed FBS	399	437	329
RPMI 5 mM glucose + 10% FBS	402	395	323
RPMI 5 mM glucose + 10% dialyzed FBS	403	408	353

OC1=CC(=C(C=C1)\C2=C(O)\C(=O)C3=C(O2)C=C(O)C=C3O)O
NOMO1 [1], HPLM + 10% dialyzed FBS
Conditions	cell viability [%]
0.000781 µM	121
0.00234 µM	118
0.00702 µM	138
0.0211 µM	136
0.0632 µM	120
0.19 µM	137
0.569 µM	132
1.71 µM	119
5.12 µM	112
15.4 µM	106
46.1 µM	71.5

AUC of viability dose-response curve
Conditions	NOMO1 [4]	P12-Ichikawa [5]	SEM cells [6]
HPLM + 10% dialyzed FBS	450	442	461
RPMI 5 mM glucose + 10% FBS	433	444	459
RPMI 5 mM glucose + 10% dialyzed FBS	467	443	465
